Source: patent publication US7807841B2, “Spiro-containing compounds and compositions as modulators of steroid hormone nuclear receptors” (IRM LLC, priority 2005, dated 2010)

Tests used:
[1] = target: T1, Mineralocorticoid Receptor (MR) (Homo sapiens, UniProt P08235); experiment: Functional assay of mineralocorticoid receptor antagonism (Gal4-MR mammalian two hybrid luciferase reporter, 293T cells); assay type: cell-based; settings: antagonism of aldosterone (0.4 nM)-induced MR activity
T1 construct: expressed in transfected cells; host or cells: 293T cells (ATCC)
T1 sequence (P08235 672-984): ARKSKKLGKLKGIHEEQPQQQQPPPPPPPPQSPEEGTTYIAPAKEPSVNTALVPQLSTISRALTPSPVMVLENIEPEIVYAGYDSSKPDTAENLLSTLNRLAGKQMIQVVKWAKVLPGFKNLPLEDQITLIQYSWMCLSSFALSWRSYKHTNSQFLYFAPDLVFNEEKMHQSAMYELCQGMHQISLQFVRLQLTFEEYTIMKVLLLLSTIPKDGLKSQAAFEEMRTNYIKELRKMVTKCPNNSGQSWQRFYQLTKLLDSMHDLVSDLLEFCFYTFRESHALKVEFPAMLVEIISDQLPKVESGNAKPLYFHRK
Experimental: The MR antagonist activity of the compounds is determined in a mammalian two hybrid reporter system. The N-terminus of MR (MR-NT, sequence coding amino acid 1-597) is fused to the activation domain of the VP16 gene. The ligand binding domain of MR (MR-LBD, sequence encoding amino acid 672-984) is fused to the DNA binding domain of the yeast Gal4 gene. The MR gene is cloned from a human kidney cDNA library with PCR.
The assay is performed in 384 well plates. Briefly, 293T cells (ATCC) are transfected with expression vectors for Gal-4-MR-LBD and VP16-MR NT, and a luciferase reporter vector containing Gal4 binding sequence (pG5-Luc). Cells are plated in 384 well plates immediately after transfection (approximately 3×10^4 cells/well in 50 μl medium). The medium is supplemented with 3% charcoal-dextran treated fetal bovine serum (Hyclone). Twenty four hours after transfection, compounds prepared in DMSO are transferred to the cells. The cells are then stimulated with 0.4 nM final concentration of aldosterone (Acros) and incubated at 37° C. for another 24 hours before the luciferase activity is assayed with 20 μl of Bright-Glo (Promega) using a luminometer (CLIPR). The expression of luciferase is used as an indicator of aldosterone-induced MR trans-activation. Each compound is tested in duplicates with 12-concentration titration. IC50 values (defined as the concentration of test compound required to antagonize 50% of aldosterone-induced MR activity) are determined from the dose-response curve.

[2] = target: T2, Glucocorticoid Receptor (GR) (Homo sapiens, UniProt P04150); experiment: Functional assay of glucocorticoid receptor antagonism (Gal4-GR-LBD luciferase reporter, COS-7 cells); assay type: cell-based; settings: antagonism of dexamethasone (10 nM)-induced GR activity
T2 construct: expressed in transfected cells; host or cells: COS-7 cells (ATCC)
T2 sequence (P04150 541-778 isoform P04150-3): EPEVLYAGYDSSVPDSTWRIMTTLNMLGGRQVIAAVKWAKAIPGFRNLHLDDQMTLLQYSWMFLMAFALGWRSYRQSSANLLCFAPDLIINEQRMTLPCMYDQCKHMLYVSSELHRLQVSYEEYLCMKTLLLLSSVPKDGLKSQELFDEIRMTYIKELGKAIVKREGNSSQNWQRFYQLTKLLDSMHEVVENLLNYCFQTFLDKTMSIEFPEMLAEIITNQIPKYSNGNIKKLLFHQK
Experimental: The GR antagonist activity of the compounds is determined in a mammalian two hybrid reporter system. The ligand binding domain of GR (GR-LBD, sequence encoding amino acid 541-778) is fused to the DNA binding domain of the yeast Gal4 gene. The GR gene is cloned from a human lung cDNA library with PCR.
The assay is performed in 384 well plates: COS-7 cells (ATCC) are transfected with expression vectors for Gal-4-GR-LBD and a luciferase reporter vector containing Gal4 binding sequence (pG5-Luc). Cells are plated in 384 well plates immediately after transfection (approximately 8000 cells/well in 50 μl medium). The medium is supplemented with 3% charcoal-dextran treated fetal bovine serum (Hyclone). Twenty four hours after transfection, compounds prepared in DMSO are transferred to the cells. The cells are then stimulated with 10 nM final concentration of dexamethasone (Sigma) and incubated at 37° C. for another 24 hours before the luciferase activity is assayed with 20 μl of Bright-Glo (Promega) using a luminometer (CLIPR). The expression of luciferase is used as an indicator of dexamethasone-induced GR trans-activation. Each compound is tested in duplicates with a 12-concentration titration. IC50 values (defined as the concentration of test compound required to antagonize 50% of dexamethasone-induced GR activity) are determined from the dose-response curve.

| IC50 [1] [µM] | IC50 [2] [µM] | SMILES |
| --- | --- | --- |
| < 0.1 | 1 to 10 | CC12CCC(=O)N1CC1(O2)c2ccccc2C=Cc2ccccc21 (single isomer, unassigned) [FRS-1 (Chiral Synthesis)] |
| < 0.1 | 1 to 10 | O=C1CCCC2(C(F)(F)F)OC3(CN12)c1ccccc1C=Cc1ccccc13 (centres unmarked) [FRS-11] |
| < 0.1 | > 10 | CC12CCC(=O)N1CC1(O2)c2ccccc2C=Cc2ccccc21 (centres unmarked) [FRS-1] |
| < 0.1 | 1 to 10 | O=C1CCC2(c3cccs3)OC3(CN12)c1ccccc1C=Cc1ccccc13 (centres unmarked) [FRS-8] |
| 0.1 to 1 | > 10 | COc1ccc(C23CCC(=O)N2CC2(O3)c3ccccc3C=Cc3ccccc32)cc1 (centres unmarked) [FRS-5] |
| 0.1 to 1 | > 10 | O=C1CCC2(c3ccccc3)OC3(CN12)c1ccccc1C=Cc1ccccc13 (centres unmarked) [FRS-2] |
| < 0.1 | 1 to 10 | O=C1CCC2(C3CC3)OC3(CN12)c1ccccc1C=Cc1ccccc13 (centres unmarked) [FRS-10] |
| 0.1 to 1 | > 10 | CC12CCCCC(=O)N1CC1(O2)c2ccccc2C=Cc2ccccc21 (centres unmarked) [FRS-6] |
| 0.1 to 1 | > 10 | CC12CCCC(=O)N1CC1(O2)c2ccccc2C=Cc2ccccc21 (centres unmarked) [FRS-4] |
| < 0.1 | 1 to 10 | CCCC12CCC(=O)N1CC1(O2)c2ccccc2C=Cc2ccccc21 (centres unmarked) [FRS-9] |
| 0.1 to 1 | > 10 | O=C1CCC2(c3ccc(F)cc3)OC3(CN12)c1ccccc1C=Cc1ccccc13 (centres unmarked) [FRS-3] |

The next lines start with the compound.

| SMILES | IC50 [1] [µM] | IC50 [2] [µM] |
| --- | --- | --- |
| CC1(C)OC2(CN1S(C)(=O)=O)c1ccccc1C=Cc1ccccc12 [SOXS-4] | < 0.1 | > 10 |
| CC(=O)N1CC2(OC13CCCCC3)c1ccccc1C=Cc1ccccc12 [SOXS-6] | 0.1 to 1 | > 10 |
| CC12CCC(=O)N1CC1(O2)c2ccccc2CCc2ccccc21 (centres unmarked) [FRS-13] | < 0.1 | > 10 |
| CC12CCC(=O)N1CC1(O2)c2ccccc2CCc2ccccc21 (single isomer, unassigned) [FRS-13 (Chiral Synthesis)] | < 0.1 | > 10 |
| CC1(C)OC2(CN1C(=O)Nc1ccc(F)cc1F)c1ccccc1C=Cc1ccccc12 [SOXS-1] | 1 to 10 | > 10 |
| CC(=O)N1CC2(OC1(C)C)c1ccccc1C=Cc1ccccc12 [SOXS-3] | 0.1 to 1 | 1 to 10 |
| Oc1ccc(C2=NCC3(O2)c2ccccc2C=Cc2ccccc23)cc1 [OXS-1] | 0.1 to 1 | > 10 |
| CC12CCCC(=O)N1CC1(O2)c2ccccc2CCc2ccccc21 (centres unmarked) [FRS-14] | 0.1 to 1 | > 10 |
